Experimental data published in patent publication US6458806B1, “Aryl alkenamides derivatives as MCP-1 antagonists” (Millennium Pharmaceuticals, Inc., priority 1996, dated 2002).
Counter-ions that a name gives are not always drawn.

Key:
[1] = system: T cell recruitment to skin DHR sites; assay: Inhibition of T cell recruitment to rat skin inflammatory (DHR) sites; type: in vivo
Method: Inhibition of T Cell Recruitment to Rat Skin Inflammatory Sites by Compound 1
Inbred, approximately 200 gm, male Lewis rats were used in all experiments. Cutaneous delayed hypersensitivity (DHR) was induced as previously described (1). Briefly, rats were sensitized to KLH (Sigma Chemical Co., St. Louis, Mo.) by administering 50 μg KLH in 0.1 ml complete Freund's adjuvant (CFA; Sigma Chemical Co.) into each of 4 subcutaneous sites. After 14 days, DHR was elicited by the challenge of 5 μg KLH in PBS into multiple intradermal sites on the back. Analysis was performed 24 hours after antigen challenge. For each experiment, there were at least three groups of animals of at least four animals in each group. […]
T cell recruitment at sites of DHR was quantified using methods previously described (1-4). […] The cells in the effluent were highly purified (>95%) rat T cells as assessed by anti-rat CD3 (monoclonal antibody KT3, Biosource International, Camarillo, Calif.) immunoreactivity by flow cytometry. […] Skin challenge sites (8 mm in diameter) were counted on a γ counter 24 hours after injection of radiolabeled T cells. Lung, liver, and spleen were also collected and counted as comparative indices for evaluation of input.
Statistical significance was determined using a paired Student's t-test. […]

CD3-Blasts = assay: CD3-Blast chemotaxis assay (transendothelial migration to MCP-1); type: cell-based; conditions: ECV-304; migration of human CD3-Blasts to about 10 nM MCP-1 across ECV304 endothelial cells, approximately 1 hour
Excerpt: CD3—Blast Chemotaxis Assay
Recombinant human MCP-1 was obtained from Peprotech (Rockey Hill, N.J.). T lymphocyte blast cells (CD3-Blasts) were generated by standard protocols (Coligan, J. E., A. M. Kruisbeek, D. H. Macgulies, E. M. Shevach, and W. Strober, editors. 1992. Current Protocols in Immunology. John Wiley and Sons, New York, 7.1.2, 7.10.1-7.10.10). Briefly, human peripheral blood mononuclear cells (PBMC) were isoltated from heparinized venous blood by Percoll density gradient centrifugation (d=1.088) at room temperature. RBCs were removed by hypotonic lysis or Dextran sedimentation. […] CD3-Blast chemotaxis was assessed no sooner than 3 to 4 days after transfer to the IL-2 containing medium using a modification of a transendothelial migration assay (Carr. M. W., S. J. Roth, B. Luther, S. S. Rose, and T. A. Springer. 1994. Monocyte chemoattractant protein 1 acts as a T-lymphocyte chemoattractant. Proc. Natl. Acad. Sci. USA 91:3652-6). […] Background migration was determined by counting cells that migrated in the absence of MCP-1 in the lower chamber. […] The percent inhibition by compounds of directed migration was determined by the following formula: [formula] […]

IC50 (CD3-Blasts): 23 µM
Structure (SMILES): O=C(/C=C/C=C/c1ccc(Cl)c(Cl)c1)NCCCN1CCCCC1 [Example 1, 5-(3,4-Dichloro-phenyl)-penta-2,4-dienoic Acid (3-piperidin-1-yl-propyl)-amide-HCl]
inhibition of T cell recruitment in rat DHR (result in words) ([1]; 30 mg/kg per os at time of antigen challenge, 24 hour period, FIG. 2): statisticallly significant inhibitory effect
inhibition of recruitment of 111In-labeled rat T cells to skin DHR sites ([1]; Lewis rats, 30 mg/kg once per os at time of antigen (KLH) challenge, 24 hours, P<0.05, dose-dependent): approximately 80%
